{
  "source": "paper PMC4941645",
  "about": "“Oxidative Stress Induced by Pt(IV) Pro-drugs Based on the Cisplatin Scaffold and Indole Carboxylic Acids in Axial Position” (Scientific Reports, 2016)",
  "test_system": "panel of human tumor cell lines (BxPC3, HCT-15, MCF-7, A431, A549, A375)",
  "assay": "MTT cytotoxicity, mean over panel of human tumor cell lines",
  "format": "cell-based",
  "conditions": "mean over the six cell lines of Table 1, 72 h",
  "protocol": "The cytotoxic activity of the complexes and of the uncoordinated ligands was evaluated by the MTT test on a panel of human tumor cell lines containing examples of pancreatic (BxPC3), colorectal (HCT-15), breast (MCF-7), cervical (A431), and lung (A549) cancers as well as of melanoma (A375). For comparison purposes, the cytotoxicity of cisplatin was evaluated under the same experimental conditions.\nThe growth inhibitory effect toward tumor cells was evaluated by means of the MTT assay. Briefly, (3–8) × 10^3 cells/well, dependent upon the growth characteristics of the cell line, were seeded in 96-well microplates in growth medium (100 μL). After 24 h, the medium was removed and replaced with fresh medium containing the compound to be studied at the appropriate concentration. Triplicate cultures were established for each treatment. After 24, 48, or 72 h, each well was treated with 10 μL of a 5 mg/mL MTT saline solution and, after 5 h of incubation, 100 μL of a sodium dodecylsulfate (SDS) solution in 0.01 M HCl was added. After an overnight incubation, cell growth inhibition was detected by measuring the absorbance of each well at 570 nm using a Bio-Rad 680 microplate reader. The mean absorbance for each drug dose was expressed as a percentage of the control, untreated well absorbance and plotted vs drug concentration. The IC50 values, the drug concentrations that decrease the mean absorbance at 570 nm to 50% of that of untreated control wells, were calculated from the dose–response curves with the four-parameter logistic model (4PL). The final value is the mean ± S.D. of at least three independent experiments performed in triplicate.",
  "data": [
    {"compound": "[NH2][Pt]([NH2])([OH])([Cl])([Cl])[O]C(=O)CCc1c[nH]c2ccccc12", "note": "[Complex 1P, cis,cis,trans-[Pt(NH3)2Cl2(IPA)(OH)]]", "values": [
      {"measurement": "IC50", "value": "~2500", "unit": "nM"}
    ]}
  ]
}
